According to patent US8440717B2, “Hair growth regulating agent” (Kao Corporation, priority 2008, dated 2013):

System: porcine hair follicles
Experiment: Hair growth suppressing effect by organ culture method using porcine hair follicles
Assay type: cell-based, pig
Settings: for activity at 3e-05 % / activity at 0.003 %: 120 h, day 5 after start of culture with sample-containing medium; for activity at 3e-05 %: concentration 0.00003%; for activity at 0.003 %: concentration 0.003%; for activity at 0.01 %: concentration 0.01%
Description: The skin of a pork pig was cut into pieces of appropriate size, and excess fat was removed. For disinfection, the skin pieces were immersed in a Hibitane solution under sterile conditions for 10 to 20 minutes. The thus-disinfected skin pieces were washed several times with D-PBS.
Subsequently, hair follicles were isolated from the thus-treated skin pieces under a stereomicroscope by means of tweezers and a scalpel (FEATHER No. 10), and the hair follicles were placed on William's Medium E (Gibco cat. No. 12551-032) supplemented with penicillin/streptomycin (Gibco cat. No. 15140-122) solution by 10.
The isolated hair follicles were transferred to a 24-well culture plate (one follicle/well) together with the aforementioned culture medium (400 μL), and cultured in an incubator (37° C., 5% CO2) for two days.
Subsequently, compounds synthesized in Example 1 (compounds 2, 6, 7, and 9 to 13) were diluted with the aforementioned culture medium, to thereby prepare sample-containing media. Each of the thus-prepared sample-containing media was used for replacement. Similarly, N,N-dimethylglycine methyl ester (DMG) and 1,8-diaminooctane (1,8-DAO) were diluted with the aforementioned culture medium, to thereby prepare sample-containing media. Each of the thus-prepared sample-containing media was also used for replacement.
The medium for culture of hair follicles was replaced with each of the sample-containing media, and thereafter, replaced with a sample-containing medium every one or two days. At days five or six after the start of culture with the sample-containing medium, the elongation of hair follicles (i.e., elongation of hair) was measured and compared with that of the control in which medium was replaced with only the non-sample-containing medium. The elongation of hair follicles (i.e., elongation of hair) in the control medium was taken as 100%.
The sample concentration of each sample-containing medium was set within a range that the sample is completely dissolved in the medium, and at non-cytotoxic levels which cause no reduction of cell viability with 24-hour addition of the sample to epidermal cells.

[1] = Sus scrofa, read-out: Percent growth of hair follicles (control = 100%)
[2] = Sus scrofa, 144 h, day 6 after start of culture with sample-containing medium, read-out: Percent growth of hair follicles (control = 100%)

`NCCCCCCCCN` [1,8-DAO, 1,8-diaminooctane, reference compound] was tested, and the activity at 0.03 % (Sus scrofa, 144 h, day 6 after start of culture with sample-containing medium, concentration 0.03%, read-out: Percent growth of hair follicles (control = 100%)) was 87.9%.

`CCCCCCCCCCCCNC(=O)CN(C)C` [Compound 2, 2-Dimethylamino-N-Dodecyl-Acetamide] showed an activity at 3e-05 % [1] of 108%.

`CCNC(=O)CN(C)C` [Compound 6, 2-Dimethylamino-N-Ethyl-Acetamide] gave an activity at 0.003 % [1] of 91.6%.

`CCCCCCCCCCCCNC(=O)C[N+](C)(C)C.[Cl-]` [Compound 7, Dodecylcarbamoylmethyltrimethylammonium Chloride] was tested, and the activity at 3e-05 % [1] was 42.4% and the “suppressive effect on growth of hair follicles (i.e., hair growth), rank among tested compounds” value (comparison across Tables 1 and 2, compound 7 at 0.000030) was “highest suppressive effect”.

For `CN(C)CC(=O)NCCOCCOCCNC(=O)CN(C)C` [Compound 9, 2-Dimethylamino-N-(2-{2-[2-(2-Dimethylamino-Acetylamino)-Ethoxy]-Ethoxy}-Ethyl)-Acetamide], the activity at 0.01 % [2] was 62.4%.

`CN(C)CC(=O)NCCCCCCCCNC(=O)CN(C)C` [Compound 10, 2-Dimethylamino-N-[8-(2-Dimethylamino-Acetylamino)-Octyl]-Acetamide] gave an activity at 0.01 % [2] of 54.7%.

`CN(C)CC(=O)NCCOCCOCCOCCNC(=O)CN(C)C` [Compound 11, 2-Dimethylamino-N-[2-(2-{2-[2-(2-Dimethylamino-Acetylamino)-Ethoxy]-Ethoxy}-Ethoxy)-Ethyl]-Acetamide] gave an activity at 0.003 % [1] of 97%.

For `CN(C)CC(=O)NCCCCCCCCCCCCNC(=O)CN(C)C` [Compound 12, 2-Dimethylamino-N-[12-(2-Dimethylamino-Acetylamino)-Dodecyl]-Acetamide], the activity at 0.003 % [1] was 48.7%.

Compound `CN(C)CC(=O)NCCCCNC(=O)CN(C)C` [Compound 13, 2-Dimethylamino-N-[4-(2-Dimethylamino-Acetamino)-Butyl]-Acetamide] has an activity at 0.003 % [1] of 79.1%.
